# Data published in patent publication US20140271881A1, “ANTISEPTIC COMPOSITION” (priority 2011, published 2014).
# Experiments:
# [1] = tested on: traumatic or chronic wounds
# [2] = tested on: acute traumatic or chronic wounds; assay: Clinical study on 6 dogs with acute traumatic or chronic wounds with delayed healing; assay type: in vivo
# Description: A clinical study of the effect of the combination used in the present invention was carried out on 6 dogs carrying inflammatory pathological conditions having led to acute traumatic or chronic wounds caused by lesion due to scratching with delayed healing.
# The composition of the invention was applied in spray lotion form, twice a day, directly onto the wound to be treated. The results were observed 1 (D1), 2(D2), 3(D3), 5(D5) and 7(D7) days after the 1st application.
structure (smiles),measurement,setting,value
Nc1ccc(S(=O)(=O)Nc2ncccn2)cc1 [sulfadiazine],Effectiveness on healing,[1],not very effective
same,Rapidity of response to the applications,"[2]; acute or chronic wounds, observed most commonly",such a rapid response is never observed
same,Effectiveness of treatments carried out previously,"[2]; the 6 dogs, before the study",ineffective
